Where two headings read alike, the source gives them in different places.

In series [1] the test system is adult bed bugs. The series is classed as in vivo.
Series [2] relates to bed bug eggs. The series is classed as in vivo, Cimex lectularius L. The source says: Immediately after infestation, and at 1-, 2-, and 3-week intervals thereafter, the numbers of hatched and unhatched eggs present in the sealed dishes were counted and compared to other Treated Groups. One egg was counted as “hatched” for every new nymph present in the petri dish when compared with the prior interval. Table 13 compares the % egg eclosion of the treated groups at the 3-week observation interval. The maximum mortality data obtained in Example 3, above, are included for comparison purposes.

For series [3], the system named is adult bed bugs. On the procedure: This example illustrates the dry residual pesticidal activity of formulations comprising varying pesticidal natural oils (oregano, clove and cinnamon oils) with acetophenone as the polar aromatic solvent. Solutions were prepared using 5.5% by weight natural oil; the percent by weight of acetophenone indicated in Table 19 and an appropriate amount of isopropanol as a carrier diluent. The percent by weight of solvent was at a final concentration of 1.5 mol/kg. Solutions were also prepared of each natural oil alone (5.5% by weight with an appropriate amount of isopropanol as a carrier diluent), and of acetophenone alone (the percent by weight indicated in Table 19 with an appropriate amount of isopropanol as a carrier diluent). Treated Groups for each solution were prepared by treating filter paper, 90 mm in diameter, with 1.0 mL of solution and allowing it to air dry for four hours. A known number of adults (usually 10) were added to each treated dish, four hours after treatment. Bed bug mortality was assessed immediately after infestation and at 1-hour, 2-hour, 4-hour, 6-hour, 8-hour, 10 hour, 12-hour, and 24-hour intervals, and at 24-hour intervals thereafter until 14 days after infestation. Adult bed bugs were counted dead if they were unresponsive when stimulated.

For series [4], the system named is adult bed bugs. On the procedure: This example illustrates the dry residual pesticidal activity of formulations comprising further pesticidal natural oils (thyme, garlic and neem oils) with acetophenone as the polar aromatic solvent. Solutions were prepared using 5.5% by weight natural oil; the percentage by weight of organic solvent indicated in Table 20 and an appropriate amount of isopropanol as a carrier diluent. Solvent was added to a final concentration of 1.5 mol/kg. Solutions were also prepared of each natural oil alone (5.5% by weight with an appropriate amount of isopropanol as a carrier diluent), and of the polar organic solvent alone (the percent by weight indicated in Table 20 with an appropriate amount of isopropanol as a carrier diluent). Treated Groups for each solution were prepared by treating filter paper, 90 mm in diameter, with 1.0 mL of solution and allowing it to air dry for four hours. A known number of adults (usually 10) were added to each treated dish, four hours after treatment. Bed bug mortality was assessed immediately after infestation and at 1-hour, 2-hour, 4-hour, 6-hour, 8-hour, 10 hour, 12-hour, and 24-hour intervals, and at 24-hour intervals thereafter until 14 days after infestation. Adult bed bugs were counted dead if they were unresponsive when stimulated.
The source holds these as a separate data set.

Series [5] concerns adult bed bugs. Conditions: for LT50: 2 h dried residue on filter paper; for Max Mortality: 2 h dried residue, observed until 33 days. On the procedure:
1.0 mL of each solution was applied to three replicates of filter paper, 90 millimeters in diameter, contained in petri dishes (Treated Groups). Treated Groups and three replicates of an untreated Control Group were allowed to dry for two hours prior to infestation with a known number of adult bed bugs (approximately half male and half female).
Bed bug mortality was assessed immediately after infestation and at 2-, 4-, 8-, 12-, and 24-hour intervals after infestation, and daily thereafter until 33 days after infestation. Adult bed bugs were counted dead if they were unresponsive when stimulated.

The test system of series [6] is bed bug eggs. The series is described as follows: Prevention of egg emergence by various pesticidal natural oils (Example 11). The series is classed as in vivo, Cimex lectularius L. Conditions: for % Eclosion (3 weeks post-infest.): 2 h dried residue, five eggs. How it is done:
Five bed bug eggs were added to each treated dish, two hours after treatment. Immediately after infestation, and at 1-, 2-, and 3-week intervals thereafter, the numbers of hatched and unhatched eggs present in the sealed dishes were counted and compared to other Treated Groups. One egg was counted as “hatched” for every new nymph present in the petri dish when compared with the prior interval. Table 12 compares the mean % egg eclosion of the treated groups at three weeks post-infestation. The maximum mortality data obtained in Example 2, above, are included for each formulation, for comparison purposes.

The mark [7] stands for this setting: […] neem oil + […] named solvent in isopropanol, 4 h dried residue.
Where [8] appears, read: […] neem oil + […] named solvent in isopropanol, 4 h dried residue, observed until 14 days.
Setting [9] is: […] neem oil + named solvent in isopropanol, 4 h dried residue, 3 weeks after infestation.
The mark [10] stands for this setting: 4 h dried residue on filter paper.
The mark [11] stands for this setting: […] by weight oil and/or 18.25% w/w acetophenone in isopropanol, 4 h dried residue on filter paper.
[12] abbreviates: time of maximum mortality, 4 h dried residue on filter paper.
Setting [13] is: […] oil + 5.0% acetophenone + […] sodium lauryl sulphate in water.
The mark [14] stands for this setting: […] oil + 5.0% ethyl lactate + […] sodium lauryl sulphate in water.
[15] abbreviates: […] by weight oil with 5.0% acetophenone, all observation intervals.

On to `CC(=O)c1ccccc1` [Acetophenone], for which the “Time to Max Mortality” value in the series on adult bed bugs [1] (setting [7]) was 24 h. Moreover, the “Max. Mortality” value in the series on adult bed bugs [1] (setting [8]) was 100%. In addition, in the series with bed bug eggs [2] (setting [9]), the “% Eclosion” value is recorded as 0%. In addition, the LT50 in the series on adult bed bugs [3] (setting [10]) turned out to be 17 h; in the series on adult bed bugs [4] (setting [10]), 11 h. In addition, the “Max Mortality” value in the series with adult bed bugs [3] (setting [11]) and in the series on adult bed bugs [4] (setting [11]) was 100% in each case. Also, the results for the Time with adult bed bugs [3] (setting [12]) and in the series with adult bed bugs [4] (setting [12]) were 53 h and 48 h, respectively.

As for `C=CCc1ccc(O)c(OC)c1` [Eugenol], the values for the LT50 in the series with adult bed bugs [5] (setting [13]) and in the series on adult bed bugs [5] (setting [14]) were 2.82 h and 9.91 h, respectively. For the same compound, the Max Mortality in the series on adult bed bugs [5] (setting [13]) and with adult bed bugs [5] (setting [14]) was 100% each time. In addition, the results for the “prevention of egg eclosion” value in the series on bed bug eggs [6] (setting [15]) and in the series with bed bug eggs [6] ([…] oil combined with 15.5% acetophenone by weight) were “some increased prevention of egg emergence” and “complete prevention of egg eclosion”, respectively. Further, the “% Eclosion (3 weeks post-infest.)” value amounted to 20% with bed bug eggs [6] ([…] oil + 5.0% acetophenone in water) and 40% with bed bug eggs [6] ([…] oil + 5.0% ethyl lactate in water).

With `CCC(C)O` (stereo not drawn) [Solution 2-Butanol, 2-Butanol], in the series with adult bed bugs [1] (in vivo), the “Max. Mortality” value is 20% and the “Time to Max Mortality” value stood at 336 h. For the same compound, the “% Eclosion” value with bed bug eggs [2] (in vivo) stood at 100%.

As for `CCCCC(=O)c1ccccc1` [Valerophenone], in the series on adult bed bugs [1] (setting [7]), the “Time to Max Mortality” value was found to be 24 h. Further, the “Max. Mortality” value in the series with adult bed bugs [1] (setting [8]) is reported as 100%. The “% Eclosion” value in the series on bed bug eggs [2] (setting [9]) stood at 0%.

For the compound `CC(C)=CCC/C(C)=C/CO` [geraniol], in the series with bed bug eggs [6] (setting [15]), the “prevention of egg eclosion” value was “complete prevention of egg eclosion”.

For Cinnamon Oil, the “Max Mortality” value came out at 90% with adult bed bugs [3] (in vivo) and 100% in the series on adult bed bugs [4] (in vivo).

In the case of Neem Oil, the “Max Mortality” value in the series on adult bed bugs [4] (in vivo) came out at 10%.

(Values after US9999218B2, “Pest control formulations and methods of making and using same” (0903608 B.C. Ltd., priority 2011, dated 2018).)
